Reference: patent publication US11850220B2 (Augusta University Research Institute, Inc., priority 2020, dated 2023)

How the values were obtained:
[1] = system: carrageenan-induced paw edema; assay: carrageenan-induced paw edema technique (anti-inflammatory); format: in vivo; details: for Observed (1/property): 1/(% inhibition of edema thickness at 3 h effect); for Observed (1/property): test concentration or dose not given here; for Potency (% Inhibition relative to indomethacin at 3 h effect): test concentration or dose not given here
Excerpt: Anti-inflammatory properties of the ibuprofen-amino acid conjugate (5a-j) and ibuprofen-amino acid-4-aminophenol conjugates 7a-j were studied by the standard carrageenan-induced paw edema technique (Naumov, R. N. et al., Bioorg. Med. Chem. Lett. 2015, 25, 2314-2320; Tiwari, A. D. et al., Org. Biomol. Chem. 2014, 12, 7238-7249).

animal gastric mucosa = assay: ulcerogenic liability; format: in vivo
[2] = system: acetic acid-induced abdominal writhing; assay: acetic acid-induced abdominal writhing technique (peripheral analgesic); format: in vivo; details: for Potency: Relative to indomethacin; for % Inhibition/protection / Writing reflex ± SEM: in vivo; for % Inhibition/protection: test concentration or dose not given here; for Writing reflex ± SEM: test concentration or dose not given here
hot plate = hot plate technique (central analgesic); format: in vivo; details: for Potency: Relative to indomethacin at 120 min.
[3] = same dose as anti-inflammatory testing
[4] = % inhibition of edema thickness at 3 h effect, Table 7
[5] = anti-inflammatory property (% inhibition of edema at 3 h), Table 8

SMILES	% inhibition of edema ([1]; 1 h)	Mean edema thickness ([1]; 1 h)	% inhibition of edema ([1]; 2 h)	Mean edema thickness ([1]; 2 h)	% inhibition of edema ([1]; 3 h)	Mean edema thickness ([1]; 3 h)	% inhibition of edema ([1]; 4 h)	Mean edema thickness ([1]; 4 h)	% inhibition of edema ([1]; 24 h)	Mean edema thickness ([1]; 24 h)	Potency [2]	% Inhibition/protection [2]	Writing reflex ± SEM [2]	% protection (hot plate; After 30 min.)	Latency period ± SEM (hot plate; After 30 min.)	% protection (hot plate; After 60 min.)	Latency period ± SEM (hot plate; After 60 min.)	% protection (hot plate; After 90 min.)	Latency period ± SEM (hot plate; After 90 min.)	% protection (hot plate; After 120 min.)	further results
CC(C)Cc1ccc(C(C)C(=O)O)cc1 (stereo not shown) [Ibuprofen, reference compound]	25%	0.92 ± 0.02 mm	37%	0.95 ± 0.03 mm	71%	0.38 ± 0.01 mm	49%	0.64 ± 0.02 mm	32%	0.13 ± 0.01 mm	93	50.8%	47.9 ± 2.1	(25.2) %	3.03 ± 0.04 s	(30.5) %	2.91 ± 0.02 s	(40.5) %	3.09 ± 0.04 s	(50.2) %	% Incidence of ulcer divided by 10 (animal gastric mucosa; [3]): 3.33; Average of ulcer number (animal gastric mucosa; [3]): 0.33; Average severity of ulcer (animal gastric mucosa; [3]): 0.67; Number of animals with ulcer (animal gastric mucosa; [3]): 2/6; Latency period ± SEM (hot plate; After 120 min.): 3.29 ± 0.03 s; Potency (hot plate): 89
CC(C)Cc1ccc(C(C)C(=O)NCC(=O)O)cc1 (stereo not shown) [Compound 5a, (2-(4-Isobutylphenyl)propanoyl)glycine]	53%	0.58 ± 0.02 mm	66%	0.51 ± 0.04 mm	72%	0.37 ± 0.06 mm	67%	0.41 ± 0.04 mm	68%	0.06 ± 0.01 mm	83	45.6%	52.9 ± 1.3	(15.3) %	2.79 ± 0.03 s	(28.3) %	2.86 ± 0.04 s	(29.1) %	2.84 ± 0.02 s	(29.7) %	Observed (1/property) ([1]; Table 7): 0.01389; Observed property [1, 4]: 72%; Observed property [1, 5]: 72%; Potency (% Inhibition relative to indomethacin at 3 h effect) [1]: 90%; % Incidence of ulcer divided by 10 (animal gastric mucosa; in vivo): 0; Average of ulcer number (animal gastric mucosa; in vivo): 0; Average severity of ulcer (animal gastric mucosa; in vivo): 0; Number of animals with ulcer (animal gastric mucosa; in vivo): 0; Ulcer index (animal gastric mucosa; in vivo): 0; Latency period ± SEM (hot plate; After 120 min.): 2.84 ± 0.05 s; Potency (hot plate): 52
CC(C)Cc1ccc(C(C)C(=O)N[C@@H](C)C(=O)Nc2ccc(O)cc2)cc1 (stereo partly drawn) [Compound 7b, (2S)-N-(4-Hydroxyphenyl)-2-(2-(4-isobutylphenyl)propanamido)propanamide]	21%	0.97 ± 0.05 mm	25%	1.13 ± 0.06 mm	62%	0.50 ± 0.02 mm	44%	0.70 ± 0.03 mm	5%	0.18 ± 0.02 mm	132	72.6%	26.7 ± 1.1	(74.0) %	4.21 ± 0.14 s	(78.5) %	3.98 ± 0.09 s	(75.0) %	3.85 ± 0.05 s	(60.7) %	Observed (1/property) ([1]; Table 7): 0.01613; Observed property [1, 4]: 62%; Observed property [1, 5]: 62%; Potency (% Inhibition relative to indomethacin at 3 h effect) [1]: 78%; Latency period ± SEM (hot plate; After 120 min.): 3.52 ± 0.06 s; Potency (hot plate): 107; melting point: 193.7 °C
COc1ccc2c(c1)c(CC(=O)O)c(C)n2C(=O)c1ccc(Cl)cc1 [Indomethacin, reference compound]	44%	0.69 ± 0.05 mm	45%	0.83 ± 0.04 mm	80%	0.26 ± 0.03 mm	66%	0.43 ± 0.05 mm	53%	0.09 ± 0.02 mm	100	54.9%	43.9 ± 1.9	(30.6) %	3.16 ± 0.02 s	(35.4) %	3.02 ± 0.04 s	(49.5) %	3.29 ± 0.01 s	(56.6) %	Potency (% Inhibition relative to indomethacin at 3 h effect) [1]: 100%; % Incidence of ulcer divided by 10 (animal gastric mucosa; [3]): 10; Average of ulcer number (animal gastric mucosa; [3]): 2; Average severity of ulcer (animal gastric mucosa; [3]): 1.67; Number of animals with ulcer (animal gastric mucosa; [3]): 6/6; Ulcer index (animal gastric mucosa; [3]): 13.67; % protection (hot plate; After 0 min.): (6.4) %; Latency period ± SEM (hot plate; After 0 min.): 3.15 ± 0.03 s; Latency period ± SEM (hot plate; After 120 min.): 3.43 ± 0.05 s; Potency (hot plate): 100
CC(C)Cc1ccc(C(C)C(=O)NCCC(=O)O)cc1 (stereo not shown) [Compound 5c, 3-(2-(4-Isobutylphenyl)propanamido)propanoic acid]	43%	0.70 ± 0.03 mm	29%	1.07 ± 0.07 mm	53%	0.61 ± 0.04 mm	36%	0.80 ± 0.03 mm	21%	0.15 ± 0.01 mm	8	4.2%	93.2 ± 1.4	(16.5) %	2.82 ± 0.04 s	(35.0) %	3.01 ± 0.02 s	(20.5) %	2.65 ± 0.05 s	(20.1) %	Observed (1/property) ([1]; Table 7): 0.01887; Observed property [1, 4]: 53%; Observed property [1, 5]: 53%; Potency (% Inhibition relative to indomethacin at 3 h effect) [1]: 66%; Latency period ± SEM (hot plate; After 120 min.): 2.63 ± 0.10 s; Potency (hot plate): 36
CC[C@H](C)C(NC(=O)C(C)c1ccc(CC(C)C)cc1)C(=O)O (stereo in doubt) [Compound 5f, (2-(4-Isobutylphenyl)propanoyl)-L-isoleucine]	27%	0.90 ± 0.05 mm	29%	1.07 ± 0.06 mm	62%	0.50 ± 0.03 mm	29%	0.89 ± 0.04 mm	47%	0.10 ± 0.03 mm	85	46.8%	51.8 ± 1.6	(14.9) %	2.78 ± 0.05 s	(15.2) %	2.57 ± 0.07 s	(25.9) %	2.77 ± 0.05 s	(48.9) %	Observed (1/property) ([1]; Table 7): 0.01613; Observed property [1, 4]: 62%; Observed property [1, 5]: 62%; Potency (% Inhibition relative to indomethacin at 3 h effect) [1]: 78%; Latency period ± SEM (hot plate; After 120 min.): 3.26 ± 0.04 s; Potency (hot plate): 86
